What was measured:
[1] = biological target: T1, 3-hydroxy-3-methylglutaryl-coenzyme A (HMG-CoA) reductase (Homo sapiens, UniProt P04035); assay: HMG-CoA reductase inhibition, potency compared with atorvastatin; format: biochemical; conditions: vs atorvastatin
T1 sequence (P04035 1-888): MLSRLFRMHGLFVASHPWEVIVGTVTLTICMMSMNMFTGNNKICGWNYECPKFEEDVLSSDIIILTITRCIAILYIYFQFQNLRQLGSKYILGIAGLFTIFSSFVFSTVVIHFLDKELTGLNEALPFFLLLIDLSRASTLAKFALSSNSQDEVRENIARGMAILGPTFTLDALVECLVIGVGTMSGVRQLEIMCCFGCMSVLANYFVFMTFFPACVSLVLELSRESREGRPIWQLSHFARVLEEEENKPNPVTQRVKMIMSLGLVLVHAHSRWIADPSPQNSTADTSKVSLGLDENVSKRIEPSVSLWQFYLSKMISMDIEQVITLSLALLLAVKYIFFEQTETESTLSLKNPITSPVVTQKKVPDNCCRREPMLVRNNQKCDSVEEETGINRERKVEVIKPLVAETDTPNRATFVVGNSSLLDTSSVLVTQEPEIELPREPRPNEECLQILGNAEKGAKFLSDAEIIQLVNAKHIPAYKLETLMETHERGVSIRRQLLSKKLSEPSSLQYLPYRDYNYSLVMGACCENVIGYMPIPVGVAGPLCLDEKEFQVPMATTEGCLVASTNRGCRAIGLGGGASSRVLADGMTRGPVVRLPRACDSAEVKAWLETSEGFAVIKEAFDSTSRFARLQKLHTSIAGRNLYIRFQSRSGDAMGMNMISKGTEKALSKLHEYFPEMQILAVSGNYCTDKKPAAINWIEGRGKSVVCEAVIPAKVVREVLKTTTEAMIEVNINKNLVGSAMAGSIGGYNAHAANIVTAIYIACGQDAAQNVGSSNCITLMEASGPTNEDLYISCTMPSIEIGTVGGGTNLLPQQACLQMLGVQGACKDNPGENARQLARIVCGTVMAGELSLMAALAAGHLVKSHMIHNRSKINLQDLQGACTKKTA

[2] = test system: cholesterol synthesis; assay: Inhibition of cholesterol synthesis in an in vivo rat model; conditions: vs atorvastatin
[3] = test system: rat primary hepatocytes; assay: Inhibition of cholesterol synthesis in rat primary hepatocytes; format: cell-based; conditions: vs atorvastatin
[4] = biological target: CYP3A4 (cytochrome P450 3A4) (Homo sapiens, UniProt P08684); assay: Substrate for metabolic enzyme CYP3A4
Sequence of CYP3A4 (cytochrome P450 3A4) (P08684 whole entry): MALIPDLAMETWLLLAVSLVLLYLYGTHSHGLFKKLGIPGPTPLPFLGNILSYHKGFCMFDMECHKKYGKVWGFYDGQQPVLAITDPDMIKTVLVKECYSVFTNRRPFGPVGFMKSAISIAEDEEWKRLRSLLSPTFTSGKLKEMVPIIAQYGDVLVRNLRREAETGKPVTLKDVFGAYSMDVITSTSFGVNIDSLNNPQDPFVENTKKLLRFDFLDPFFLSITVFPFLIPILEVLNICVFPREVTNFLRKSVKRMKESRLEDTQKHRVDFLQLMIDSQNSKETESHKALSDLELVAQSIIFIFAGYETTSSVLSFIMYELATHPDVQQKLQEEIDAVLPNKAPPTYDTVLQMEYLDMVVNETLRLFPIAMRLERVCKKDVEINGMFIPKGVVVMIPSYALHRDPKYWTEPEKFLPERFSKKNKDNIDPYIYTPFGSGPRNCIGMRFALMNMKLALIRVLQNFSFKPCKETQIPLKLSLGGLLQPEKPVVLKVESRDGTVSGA

[5] = Intrinsic clearance in human liver microsomes; conditions: vs atorvastatin
[6] = test system: NRK-49F (Fibroblast) and L6 (Myoblast); assay: Inhibition of cholesterol synthesis in extra hepatic cells/cell lines

(3R,5R)-7-[2-(4-fluorophenyl)-5-isopropyl-3-phenyl-4-[(4-hydroxymethylphenylamino)carbonyl]-pyrrol-1-yl]-3,5-dihydroxy-heptanoic acid hemi calcium salt [compound of Formula I]
potency relative to atorvastatin [1]: equipotent to atorvastatin
potency in inhibiting cholesterol synthesis [2]: more potent than atorvastatin
potency in the inhibition of cholesterol synthesis [3]: greater potency
substrate for the metabolic enzyme CYP3A4 [4]: not a major substrate
intrinsic clearance [5]: significantly less than atorvastatin
selectivity, inhibition of cholesterol synthesis in rat primary hepatocytes over extra hepatic cells/cell lines ([6]; NRK-49F and L6, vs atorvastatin): greater
hepatoselectivity ([6]; vs atorvastatin): better hepatoselectivity
